Measurements reported in article PMC12292521, “Discovery of a Potent Antimicrobial Peptide Through Rational Design: A New Frontier in Pathogen Control” (Biomolecules, 2025).

Tests used:
Enterococcus faecium = assay: Antimicrobial susceptibility by disk diffusion (EUCAST); format: cell-based
Protocol: (§1) The antimicrobial susceptibility of the four ESKAPE bacteria Acinetobacter baumannii, Enterococcus faecium, P. aeruginosa, and S. aureus, made available by the culture collection of IZSM, was evaluated by the disk diffusion method. Antimicrobials used were different and specific per each bacterium under study. […] Thereby, the diameter of the inhibition zones was measured, and bacteria were classified as resistant or sensitive per antibiotic tested in agreement with the European Committee for Antimicrobial Susceptibility Testing (EUCAST, 2025) breakpoints.

[1] = system: Staphylococcus aureus (MRSA); assay: as above; format: cell-based
Protocol: as §1

| SMILES | Susceptibility of the strain, in words (Enterococcus faecium) | Susceptibility of the strain, in words [1] |
| --- | --- | --- |
| CC1(C)S[C@@H]2[C@H](NC(=O)[C@H](N)c3ccccc3)C(=O)N2[C@H]1C(=O)O [Ampicillin] | resistant | – |
| O=C(O)c1cn(C2CC2)c2cc(N3CCNCC3)c(F)cc2c1=O [Ciprofloxacin] | resistant | important resistance was detected |
| CO[C@@]1(NC(=O)Cc2cccs2)C(=O)N2C(C(=O)O)=C(COC(N)=O)CS[C@@H]21 [Cefoxitin] | – | important resistance was detected |
| C[C@H]1COc2c(N3CCN(C)CC3)c(F)cc3c(=O)c(C(=O)O)cn1c23 [Levofloxacin] | resistant | important resistance was detected |
| CN[C@H](CC(C)C)C(=O)N[C@H]1C(=O)N[C@@H](CC(N)=O)C(=O)N[C@H]2C(=O)N[C@H]3C(=O)N[C@H](C(=O)N[C@H](C(=O)O)c4cc(O)cc(O)c4-c4cc3ccc4O)[C@H](O)c3ccc(c(Cl)c3)Oc3cc2cc(c3O[C@@H]2O[C@H](CO)[C@@H](O)[C@H](O)[C@H]2O[C@H]2C[C@](C)(N)[C@H](O)[C@H](C)O2)Oc2ccc(cc2Cl)[C@H]1O [Vancomycin] | resistant | – |
| CC[C@H]1OC(=O)[C@H](C)[C@@H](O[C@H]2C[C@@](C)(OC)[C@@H](O)[C@H](C)O2)[C@H](C)[C@@H](O[C@@H]2O[C@H](C)C[C@H](N(C)C)[C@H]2O)[C@](C)(O)C[C@@H](C)C(=O)[C@H](C)[C@@H](O)[C@]1(C)O [Erythromycin] | – | important resistance was detected |
